Results taken from patent US6355799B1, “Substituted benzene compounds, process for their preparation, and herbicidal and defoliant compositions containing them” (ISK Americas Incorporated, priority 1997, dated 2002).

Columns and labels:
Format in all cases: in vivo
[1] = test system: redroot pigweed (Amaranthus retroflexus, AMARE); experiment: Pre-emerge test, greenhouse herbicide activity screening; conditions: pre-emerge, 14 days after application, rating scale 0-100
Procedure, shortened: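 Rating: 0–100 visual injury, 14 DAA. Application: acetone, 187 l/ha, 15–1000 g ai/ha, flat-fan track sprayer with nozzle 40–45 cm above soil or canopy. Post-emerge runs used 0.25% v/v surfactant on 2–3 leaf plants.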

[2] = test system: barnyardgrass (Echinochloa crus-galli, ECHCG); experiment: Post-emerge test, greenhouse herbicide activity screening; conditions: post-emerge, 14 days after application, rating scale 0-100
Source text: (§1) A standard greenhouse herbicide activity screening system was used to evaluate the herbicidal efficacy and crop safety of these test compounds. Seven broadleaf weed species including redroot pigweed (Amaranthus retroflexus, AMARE, velvetleaf (Abutilon theophrasti, ABUTH), sicklepod (Cassia obtusifolia, CASOB), ivyleaf morningglory (Ipomoea hederacea, IPOHE), lambsquarters (Chenopodium album, CHEAL), common ragweed (Ambrosia artemisizfolia L., AMBEL), and cocklebur (Xanthium strumarium, XANST) were used as test species. Four grass weed species including green foxtail (Setaria viridis, SETVI), barnyardgrass (Echinochloa crus-galli, ECHCG), johnsongrass (Sorghum halepense, SORHA), and large crabgrass (Digitaria sanguinalis, DIGSA) were also used. In addition, three crop species, field corn (Zea mays L., var. Dekalb 535, CORN), soybean (Glycine max L., var. Pella 86, SOY), and is upland rice (Oryza sp., var. Tebonnet, RICE) were included.
(§2) All plants were grown in 10 cm square plastic pots which were filled with a sandy loam soil mix. For pre-emerge tests, seeds were planted one day prior to application of the test compounds. For post-emerge tests, seeds were planted 8-21 days prior to the test to allow emergence and good foliage development prior to application of the test substances. At the time of the post-emerge application, plants of all species were usually at the 2-3 leaf stage of development.
(§3) All test compounds Were dissolved in acetone and applied to the test units in a volume of 187 l /ha. Test materials were applied at rates ranging from 15 g ai/ha to 1000 g ai/ha using a track sprayer equipped with a TJ8001E even flow flat fan spray nozzle. Plants were arranged on a shelf so that the top of the canopy (post-emerge) or top of the soil surface (pre-emerge) was 40-45 cm below the nozzle. Pressurized air was used to force the test solution through the nozzle as it was mechanically advanced (via electrically driven chain drive) over the top of all test plants/pots. This application simulates a typical commercial field herbicide application.
(§4) In the post-emerge test, a commercial non-ionic surfactant was also included (0.25% v/v) to enhance wetting of the leaf surfaces of target plants. Immediately after application, test units of the pre-emerge applications were watered at the soil surface to incorporate the test materials. Subsequently, these test units were bottom-watered. Post-emerge test units were always bottom-watered.
(§5) At 14 days after application of the test materials, phytotoxicity ratings were recorded. A rating scale of 0-100 was used as previously described in Research Methods in Weed Science, 2nd edition, B. Truelove, Ed., Southern Weed Science Society, Auburn University, Auburn, Ala. 1977. Briefly, “0” corresponds to no damage and “100” corresponds to complete death of all plants in the test unit. This scale was used both to determine efficacy against weed species and damage to crop species. Herbicide activity data for various compounds of this invention, which are shown by compound No. in Tables 1-8, are shown in Tables 11 and 12.

[3] = test system: redroot pigweed (Amaranthus retroflexus, AMARE); experiment: as above; conditions: post-emerge, 14 days after application
Source text: as §1, §2, §3, §4, §5

[4] = test system: large crabgrass (Digitaria sanguinalis, DIGSA); experiment: as above; conditions: post-emerge, 14 days after application, rating scale 0-100
Source text: as §1, §2, §3, §4, §5

[5] = test system: lambsquarters (Chenopodium album, CHEAL); experiment: as above; conditions: post-emerge, 14 days after application, rating scale 0-100
Source text: as §1, §2, §3, §4, §5

[6] = test system: green foxtail (Setaria viridis, SETVI); experiment: as above; conditions: post-emerge, 14 days after application, rating scale 0-100
Source text: as §1, §2, §3, §4, §5

[7] = test system: velvetleaf (Abutilon theophrasti, ABUTH); experiment: as above; conditions: post-emerge, 14 days after application, rating scale 0-100
Source text: as §1, §2, §3, §4, §5

[8] = test system: ivyleaf morningglory (Ipomoea hederacea, IPOHE); experiment: as above; conditions: post-emerge, 14 days after application, rating scale 0-100
Source text: as §1, §2, §3, §4, §5

[9] = test system: sicklepod (Cassia obtusifolia, CASOB); experiment: as above; conditions: post-emerge, 14 days after application, rating scale 0-100
Source text: as §1, §2, §3, §4, §5

[10] = test system: field corn (Zea mays L., var. Dekalb 535, CORN); experiment: Pre-emerge test, crop safety; conditions: pre-emerge, 14 days after application, rating scale 0-100
Procedure, shortened: (§6)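 Herbicidal damage is scored 0 (none) to 100 (complete plant death) two weeks after a simulated field spray. Rates span 15–1000 g ai/ha, delivered in acetone at 187 l/ha. For post-emergence treatments, plants have 2–3 leaves and the spray carries 0.25% v/v non-ionic surfactant.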

[11] = test system: upland rice (Oryza sp., var. Tebonnet, RICE); experiment: Pre-emerge test, crop safety; conditions: pre-emerge, 14 days after application, rating scale 0-100
Procedure, shortened: as §6

[12] = test system: field corn (Zea mays L., var. Dekalb 535, CORN); experiment: Post-emerge test, crop safety; conditions: post-emerge, 14 days after application, rating scale 0-100
Procedure, shortened: as §6

[13] = test system: upland rice (Oryza sp., var. Tebonnet, RICE); experiment: Post-emerge test, crop safety; conditions: post-emerge, 14 days after application, rating scale 0-100
Procedure, shortened: as §6

[14] = test system: barnyardgrass (Echinochloa crus-galli, ECHCG); experiment: Pre-emerge test, greenhouse herbicide activity screening; conditions: pre-emerge, 14 days after application, rating scale 0-100
Procedure, shortened: as §6

[15] = test system: large crabgrass (Digitaria sanguinalis, DIGSA); experiment: as above; conditions: pre-emerge, 14 days after application, rating scale 0-100
Procedure, shortened: as §6

[16] = test system: lambsquarters (Chenopodium album, CHEAL); experiment: as above; conditions: pre-emerge, 14 days after application, rating scale 0-100
Procedure, shortened: as §6

[17] = test system: green foxtail (Setaria viridis, SETVI); experiment: as above; conditions: pre-emerge, 14 days after application, rating scale 0-100
Procedure, shortened: as §6

[18] = test system: velvetleaf (Abutilon theophrasti, ABUTH); experiment: as above; conditions: pre-emerge, 14 days after application, rating scale 0-100
Procedure, shortened: as §6

[19] = test system: ivyleaf morningglory (Ipomoea hederacea, IPOHE); experiment: as above; conditions: pre-emerge, 14 days after application, rating scale 0-100
Procedure, shortened: as §6

[20] = test system: sicklepod (Cassia obtusifolia, CASOB); experiment: as above; conditions: pre-emerge, 14 days after application, rating scale 0-100
Procedure, shortened: as §6

COc1c(Cl)cc(F)c(-n2c(=O)cc(C(F)(F)F)n(C)c2=O)c1NNC(=O)Nc1ccc(F)cc1F [15-8]
phytotoxicity rating AMARE ([1]; 63 g ai/ha): 60
phytotoxicity rating AMARE ([1]; 250 g ai/ha): 100
Post-emerge Herbicidal Activity ECHCG (phytotoxicity rating) ([2]; 63 g ai/ha): 0
Post-emerge Herbicidal Activity ECHCG (phytotoxicity rating) ([2]; 250 g ai/ha): 20
Post-emerge Herbicidal Activity AMARE (phytotoxicity rating) ([3]; 63 g ai/ha, rating scale 0-100 (0 no damage, 100 complete death)): 20
Post-emerge Herbicidal Activity AMARE (phytotoxicity rating) ([3]; 250 g ai/ha, rating scale 0-100): 60
Post-emerge Herbicidal Activity DIGSA (phytotoxicity rating) ([4]; 63 g ai/ha): 0
Post-emerge Herbicidal Activity DIGSA (phytotoxicity rating) ([4]; 250 g ai/ha): 0
Post-emerge Herbicidal Activity CHEAL (phytotoxicity rating) ([5]; 63 g ai/ha): 95
Post-emerge Herbicidal Activity CHEAL (phytotoxicity rating) ([5]; 250 g ai/ha): 90
Post-emerge Herbicidal Activity SETVI (phytotoxicity rating) ([6]; 63 g ai/ha): 0
Post-emerge Herbicidal Activity SETVI (phytotoxicity rating) ([6]; 250 g ai/ha): 30
Post-emerge Herbicidal Activity ABUTH (phytotoxicity rating) ([7]; 63 g ai/ha): 70
Post-emerge Herbicidal Activity ABUTH (phytotoxicity rating) ([7]; 250 g ai/ha): 100
Post-emerge Herbicidal Activity IPOHE (phytotoxicity rating) ([8]; 63 g ai/ha): 50
Post-emerge Herbicidal Activity IPOHE (phytotoxicity rating) ([8]; 250 g ai/ha): 90
Post-emerge Herbicidal Activity CASOB (phytotoxicity rating) ([9]; 63 g ai/ha): 0
Post-emerge Herbicidal Activity CASOB (phytotoxicity rating) ([9]; 250 g ai/ha): 40
phytotoxicity rating CORN ([10]; 63 g ai/ha): 0
phytotoxicity rating CORN ([10]; 250 g ai/ha): 90
phytotoxicity rating RICE ([11]; 63 g ai/ha): 15
phytotoxicity rating RICE ([11]; 250 g ai/ha): 90
Post-emerge Herbicidal Activity CORN (crop damage rating) ([12]; 63 g ai/ha): 0
Post-emerge Herbicidal Activity CORN (crop damage rating) ([12]; 250 g ai/ha): 55
Post-emerge Herbicidal Activity RICE (crop damage rating) ([13]; 63 g ai/ha): 10
Post-emerge Herbicidal Activity RICE (crop damage rating) ([13]; 250 g ai/ha): 60
phytotoxicity rating ECHCG ([14]; 63 g ai/ha): 0
phytotoxicity rating ECHCG ([14]; 250 g ai/ha): 40
phytotoxicity rating DIGSA ([15]; 63 g ai/ha): 30
phytotoxicity rating DIGSA ([15]; 250 g ai/ha): 100
phytotoxicity rating CHEAL ([16]; 63 g ai/ha): 60
phytotoxicity rating CHEAL ([16]; 250 g ai/ha): 100
phytotoxicity rating SETVI ([17]; 63 g ai/ha): 20
phytotoxicity rating SETVI ([17]; 250 g ai/ha): 0
phytotoxicity rating ABUTH ([18]; 63 g ai/ha): 40
phytotoxicity rating ABUTH ([18]; 250 g ai/ha): 100
phytotoxicity rating IPOHE ([19]; 63 g ai/ha): 0
phytotoxicity rating IPOHE ([19]; 250 g ai/ha): 70
phytotoxicity rating CASOB ([20]; 63 g ai/ha): 20
phytotoxicity rating CASOB ([20]; 250 g ai/ha): 80
